In patent publication US20220056019A1, “FARNESOID X RECEPTOR AGONISTS AND USES THEREOF” (Metacrine, Inc., priority 2018, published 2022):

Molecular target: T1, hFXR (Homo sapiens, UniProt Q96RI1)
T1 construct: expressed in transfected cells; host or cells: CV-1 cells
T1 sequence (Q96RI1 1-486): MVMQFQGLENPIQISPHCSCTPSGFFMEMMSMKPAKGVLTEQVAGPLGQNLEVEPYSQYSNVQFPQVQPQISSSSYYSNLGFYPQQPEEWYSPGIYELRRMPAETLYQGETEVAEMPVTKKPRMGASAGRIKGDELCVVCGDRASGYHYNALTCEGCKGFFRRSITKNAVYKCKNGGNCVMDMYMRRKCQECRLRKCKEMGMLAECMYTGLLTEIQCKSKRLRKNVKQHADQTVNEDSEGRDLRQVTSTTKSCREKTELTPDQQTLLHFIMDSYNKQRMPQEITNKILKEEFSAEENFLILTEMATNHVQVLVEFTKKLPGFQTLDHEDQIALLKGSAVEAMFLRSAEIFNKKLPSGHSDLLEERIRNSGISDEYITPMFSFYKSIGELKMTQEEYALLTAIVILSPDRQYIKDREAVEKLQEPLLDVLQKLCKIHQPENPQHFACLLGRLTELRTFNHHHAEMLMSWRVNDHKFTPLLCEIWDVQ
T1 sequence (P19793 1-462 partner): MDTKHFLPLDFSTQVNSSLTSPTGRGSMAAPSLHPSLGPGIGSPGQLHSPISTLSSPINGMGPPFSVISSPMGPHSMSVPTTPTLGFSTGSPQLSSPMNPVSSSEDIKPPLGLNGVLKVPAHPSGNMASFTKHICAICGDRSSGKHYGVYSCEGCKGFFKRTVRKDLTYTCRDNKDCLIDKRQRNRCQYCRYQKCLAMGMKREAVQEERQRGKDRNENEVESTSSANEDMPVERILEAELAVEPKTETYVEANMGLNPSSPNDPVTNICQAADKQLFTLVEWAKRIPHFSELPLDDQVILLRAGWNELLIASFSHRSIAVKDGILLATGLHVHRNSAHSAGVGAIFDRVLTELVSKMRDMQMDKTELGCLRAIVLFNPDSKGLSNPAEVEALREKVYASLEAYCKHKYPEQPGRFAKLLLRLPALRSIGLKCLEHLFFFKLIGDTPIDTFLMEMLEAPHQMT
Experiment: In Vitro FXR Assay (TK): TK-ECRE-luc reporter in transfected CV-1 cells
Format: cell-based
Details: 18 hrs incubation, luminescence
Outline: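 First, CV-1 cells were grown overnight in stripped-serum DMEM, then transfected for 18 h with expression plasmids for human FXR and RXR plus a TK-ECRE luciferase reporter and YFP. Next, serially diluted compounds were applied for 18 h, and lysates were read by luminescence.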

SMILES | EC50
COc1ccc(C23CCC(CN(c4cc(-c5cnn(C6(C)CCC6)c5)ncn4)C(=O)[C@H]4CC[C@H](OC(=O)N5CC(O)C5)CC4)(CC2)CC3)cc1C [Compound 25.26, 4-(((4-(4-Methoxy-3-methylphenyl)bicyclo[2.2.2]octan-1-yl)methyl)(6-(1-(1-methylcyclobutyl)-1H-pyrazol-4-yl)pyrimidin-4-yl)carbamoyl)cyclohexyl trans-3-hydroxyazetidine-1-carboxylate] | ≤ 50 nM
CCc1nc(-c2ccnc(N(CC34CCC(c5ccc(OC)c(C)c5)(CC3)CC4)C(=O)[C@H]3CC[C@H](OC(=O)N4CC(CO)C4)CC3)c2)co1 [Compound 4.30, 4-((4-(2-Ethyloxazol-4-yl)pyridin-2-yl)((4-(4-methoxy-3-methylphenyl)bicyclo[2.2.2]octan-1-yl)methyl)carbamoyl)(trans-cyclohexyl) 3-(hydroxymethyl)azetidine-1-carboxylate] | ≤ 50 nM
COc1ccc([C@H]2CC[C@H](CN(c3cccc(-c4cnn(C(C)C)c4)c3)C(=O)[C@H]3CC[C@H](NC(=O)CCCO)CC3)CC2)cc1C [Compound 14, trans-4-(4-Hydroxybutanamido)-N-(3-(1-isopropyl-1H-pyrazol-4-yl)phenyl)-N-((trans-4-(4-methoxy-3-methylphenyl)cyclohexyl)methyl)cyclohexanecarboxamide] | 50 to 1000 nM
COc1ccc([C@H]2CC[C@H](CN(c3cc(-c4coc(C(C)C)n4)ccn3)C(=O)[C@H]3CC[C@H](OC(=O)NCC(C)(C)O)CC3)CC2)cc1C [Compound 2.26, trans-4-((4-(2-Isopropyloxazol-4-yl)pyridin-2-yl)(((trans)-4-(4-methoxy-3-methylphenyl)cyclohexyl)methyl)carbamoyl)cyclohexyl (2-hydroxy-2-methylpropyl)carbamate] | ≤ 50 nM
COc1ccc(C23CCC(CN(c4ccc(Cl)c(-c5cnn(C(C)C)c5)c4)C(=O)[C@H]4CC[C@H](OC(=O)N5CC(O)C5)CC4)(CC2)CC3)cc1C [Compound 26.04, 4-((4-Chloro-3-(1-isopropyl-1H-pyrazol-4-yl)phenyl)((4-(4-methoxy-3-methylphenyl)bicyclo[2.2.2]octan-1-yl)methyl)carbamoyl)(trans-cyclohexyl) 3-hydroxyazetidine-1-carboxylate] | ≤ 50 nM
COc1ccc(C23CCC(CN(c4cc(-c5cnc(C(C)C)s5)ccn4)C(=O)[C@H]4CC[C@H](OC(=O)NCCC(C)(C)O)CC4)(CC2)CC3)cc1C [Compound 4.39, 4-((4-(2-Isopropylthiazol-5-yl)pyridin-2-yl)((4-(4-methoxy-3-methylphenyl)bicyclo[2.2.2]octan-1-yl)methyl)carbamoyl)(trans-cyclohexyl) (3-hydroxy-3-methylbutyl)carbamate] | ≤ 50 nM
CCC(=O)N[C@H]1CC[C@H](C(=O)N(C[C@H]2CC[C@H](c3ccc(OC)c(C)c3)CC2)c2cccc(-c3cnn(C(C)C)c3)c2)CC1 [Compound 10, trans-N-(3-(1-Isopropyl-1H-pyrazol-4-yl)phenyl)-N-((trans-4-(4-methoxy-3-methylphenyl)cyclohexyl)methyl)-4-propionamidocyclohexanecarboxamide] | ≤ 50 nM
COc1ccc(C23CCC(CN(c4cc(-c5cnn(C(C)C)c5)ccn4)C(=O)[C@H]4CC[C@H](OC(=O)NCCO)CC4)(CC2)CC3)cc1C [Compound 4.05, 4-((4-(1-Isopropyl-1H-pyrazol-4-yl)pyridin-2-yl)((4-(4-methoxy-3-methylphenyl)bicyclo [2.2.2]octan-1-yl)methyl)carbamoyl)cyclohexyl (2-hydroxyethyl)trans-carbamate] | ≤ 50 nM
COc1ccc(C23CCC(CN(c4cc(-c5cnn(C6CCSCC6)c5)ccn4)C(=O)[C@H]4CC[C@H](OC(=O)N5CC(O)C5)CC4)(CC2)CC3)cc1C [Compound 26.21, 4-(((4-(4-Methoxy-3-methylphenyl)bicyclo[2.2.2]octan-1-yl)methyl)(4-(1-(tetrahydro-2H-thiopyran-4-yl)-1H-pyrazol-4-yl)pyridin-2-yl)carbamoyl)cyclohexyl trans-3-hydroxyazetidine-1-carboxylate] | ≤ 50 nM
COc1ccc(C23CCC(CN(c4cc(-c5nnc(C(C)C)o5)ccn4)C(=O)[C@H]4CC[C@H](OC(=O)N5CC(O)C5)CC4)(CC2)CC3)cc1C [Compound 26.12, 4-((4-(5-Isopropyl-1,3,4-oxadiazol-2-yl)pyridin-2-yl)((4-(4-methoxy-3-methylphenyl)bicyclo[2.2.2]octan-1-yl)methyl)carbamoyl)cyclohexyl trans-3-hydroxyazetidine-1-carboxylate] | 50 to 1000 nM
COc1ccc(C23CCC(CN(c4cc(-n5cnc(C(C)C)n5)ccn4)C(=O)[C@H]4CC[C@H](OC(=O)N5CC(O)C5)CC4)(CC2)CC3)cc1C [Compound 4.18, 4-((4-(3-Isopropyl-1H-1,2,4-triazol-1-yl)pyridin-2-yl)((4-(4-methoxy-3-methylphenyl)bicyclo [2.2.2]octan-1-yl)methyl)carbamoyl)cyclohexyl 3-hydroxyazetidine-trans-1-carboxylate] | ≤ 50 nM
COc1ccc(C23CCC(CN(C(=O)C4CCC(OC(=O)N5CC(O)C5)CC4)c4cc(C5CCCN(C(C)C)C5)ccn4)(CC2)CC3)cc1C (stereo not drawn) [Compound 26.18, 4-((4-(1-Isopropylpiperidin-3-yl)pyridin-2-yl)((4-(4-methoxy-3-methylphenyl)bicyclo[2.2.2]octan-1-yl)methyl)carbamoyl)cyclohexyl trans-3-hydroxyazetidine-1-carboxylate] | 1000 to 10000 nM
CCc1nc(-c2ccnc(N(CC34CCC(c5ccc(OC)c(C)c5)(CC3)CC4)C(=O)[C@H]3CC[C@H](OC(=O)N4CC(O)C4)CC3)c2)co1 [Compound 4.22, 4-((4-(2-Ethyloxazol-4-yl)pyridin-2-yl)((4-(4-methoxy-3-methylphenyl)bicyclo[2.2.2]octan-1-yl)methyl)carbamoyl) cyclohexyl 3-hydroxyazetidine-trans-1-carboxylate] | ≤ 50 nM
COc1ccc(C23CCC(CN(c4cc(-c5cnn(C(C)C)c5)ccn4)C(=O)[C@H]4CC[C@H](OC(=O)N5CC(O)C5)CC4)(CC2)CC3)cc1F [Compound 26.08, 4-(((4-(3-Fluoro-4-methoxyphenyl)bicyclo[2.2.2]octan-1-yl)methyl)(4-(1-isopropyl-1H-pyrazol-4-yl)pyridin-2-yl)carbamoyl)cyclohexyl trans-3-hydroxyazetidine-1-carboxylate] | ≤ 50 nM
COc1ccc([C@H]2CC[C@H](CN(c3cc(-c4cnc(C5CC5)o4)ccn3)C(=O)[C@H]3CC[C@H](OC(=O)NCC(C)(C)O)CC3)CC2)cc1C [Compound 2.50, trans-4-((4-(2-Cyclopropyloxazol-5-yl)pyridin-2-yl)((trans-4-(4-methoxy-3-methylphenyl)cyclohexyl)methyl)carbamoyl)cyclohexyl (2-hydroxy-2-methylpropyl)carbamate] | ≤ 50 nM
COCC1CN(C(=O)O[C@H]2CC[C@H](C(=O)N(CC34CCC(c5ccc(OC)c(C)c5)(CC3)CC4)c3cc(-c4cnn(C(C)C)c4)ccn3)CC2)C1 [Compound 4.41, 4-((4-(1-Isopropyl-1H-pyrazol-4-yl)pyridin-2-yl) ((4-(4-methoxy-3-methylphenyl)bicyclo [2.2.2]octan-1-yl)methyl)carbamoyl)cyclohexyl trans-3-(methoxymethyl) azetidine-1-carboxylate] | ≤ 50 nM
COc1ccc([C@H]2CC[C@H](CN(c3cccc(-c4cnn(C(C)C)c4)c3)C(=O)[C@H]3CC[C@H](NC(=O)OC4COC4)CC3)CC2)cc1C [Compound 6.05, Oxetan-3-yl (trans-4-((3-(1-isopropyl-1H-pyrazol-4-yl)phenyl)((trans-4-(4-methoxy-3-methylphenyl)cyclohexyl)meth-yl)carbamoyl)cyclohexyl)carbamate] | ≤ 50 nM
COc1ccc(C23CCC(CN(c4cc(-c5cnn(C6CCCC6)c5)ccn4)C(=O)[C@H]4CC[C@H](OC(=O)N5CC(O)C5)CC4)(CC2)CC3)cc1C [Compound 23.07, 4-((4-(1-Cyclopentyl-1H-pyrazol-4-yl)pyridin-2-yl)((4-(4-methoxy-3-methylphenyl)bicyclo[2.2.2]oc-tan-1-yl)methyl)carbamoyl)(trans-cyclohexyl) 3-hydroxy-azetidine-1-carboxylate] | ≤ 50 nM
COc1ccc(C23CCC(CN(c4cc(-n5nnc(C(C)C)n5)ccn4)C(=O)[C@H]4CC[C@H](OC(=O)N5CC(O)C5)CC4)(CC2)CC3)cc1C [Compound 26.17, 4-((4-(5-Isopropyl-2H-tetrazol-2-yl)pyridin-2-yl)((4-(4-methoxy-3-methylphenyl)bicyclo[2.2.2]octan-1-yl)methyl)carbamoyl)cyclohexyl trans-3-hydroxyazetidine-1-carboxylate] | 1000 to 10000 nM
